Assay [1] has as its system MCF-7 cells. The following applies: cited from earlier work; for SI value: on MCF-7.
For a further assay, the system named is HL-60 cells. The assay can be described thus: MTT cell viability assay, HL-60. In kind it is cell-based. The note with it: Homo sapiens, HL-60, MTT. The method, then: (§1) Promyelocytic leukemia HL60, hepatoblastoma HepG2, breast cancer MCF-7 and MDA-MB-231 cells were purchased from ATCC (USA) and cultured in RPMI-1640 media (Sigma, USA), supplemented with 10% fetal bovine serum (FBS) (PAA, USA). Normal epithelial MCF-10A cells (ATCC, USA) was maintain in DMEM-F12 (Sigma, USA) supplemented with hydrocortisone (0.5 μg/mL), insulin (10 μg/mL), human epidermal growth factor (hEGF) (20 ng/mL) (Sigma, USA) and 10% FBS (PAA, USA).
(§2) MTT cell viability assay was used to evaluate the effect of DK1 on viability of HL-60, HepG2, MCF-7, MDA-MB-231 and MCF-10A cells. Briefly, each type of cells (8 × 10^4cells/well) was seeded in 96-well plate in 37 °C CO2 incubator overnight. Then, DK1 was added at concentration ranging between 200 and 3.125 µM by twofold serial dilution. Untreated control was prepared simultaneously. After that, the cells were incubated for 24, 48 and 72 h at 37 °C in 5% CO2 incubator. After the incubation period, all well was added with 20 μL of MTT solution (5 mg/mL) and further incubated for 3 h. Subsequently, 170 μL of supernatant from each well was discarded, 100 μL of dimethyl sulfoxide (DMSO) was added to solubilize the purple formazan crystal and the absorbance was measured at a wavelength of 570 nm by Enzyme-linked immunosorbent assay (ELISA) plate reader (Bio-tek instruments, USA). All cell lines were assayed for three biological replicates each with triplicates. Percentage of cell viability was calculated using the following formula: Cell viability%=OD sample/OD control×100%
(§3) IC50 value (concentration of DK1 that reduce 50% of cell viability compared to control cell) was determined from the graph of cell viability (%) vs DK1 concentration. Subsequently, selective index, which indicating selectivity of DK1 against cancerous and normal breast cell lines, was calculated by: Selective indexSI=IC50of DK1on normal MCF-10A cell line/IC50on breast cancerous cell lineHL60/HepG2/MCF-7/MDA-MB-231

In another assay the test system is HepG2 cells. As to the kind of experiment: MTT cell viability assay, HepG2. Type of assay: cell-based. The note with it: Homo sapiens. Here is the method: as §1, §2, §3
A general note: Formazan colour is commonly taken as a measure of viable cells.

Assay [2] concerns MCF-7 cells. As to the kind of experiment: MTT cell viability assay, MCF-7. In kind it is cell-based, human. The note with it: for IC50: Homo sapiens, MCF7, MCF-7, MTT. Here is the method: as §1, §2, §3
A further assay deals with MDA-MB-231 cells. As to the kind of experiment: MTT cell viability assay, MDA-MB-231. Type of assay: cell-based, human. The following applies: for IC50: Homo sapiens, MDA-MB-231, MTT. The method, then:
as §1, §2, §3

A further assay concerns MCF-10A cells. The assay can be described thus: MTT cell viability assay, normal MCF-10A. In kind it is cell-based. The following applies: Homo sapiens. The method, then: as §1, §2, §3
Assay [3] relates to MCF-7 cells. The assay can be described thus: Flow cytometry AnnexinV-FITC/PI apoptosis analysis. In kind it is cell-based, human. The method, then:
Apoptosis of DK1 treated MCF-7 was compared with the control cell by Flow cytometry AnnexinV-FITC/PI apoptosis assay. Briefly, harvested cells were resuspended in 100 μL of 1× binding buffer and stained with 5 μL each of AnnexinV-FITC and propidiumiodide. After 15 min of incubation, the cells were added with 400 μL of 1× binding buffer and subjected to BD FACS Calibur flow cytometer analysis using BD Cell Quest Pro software (Becton–Dickinson, USA).
In general terms: Flow cytometry measures light scatter and fluorescence of single cells or particles in a stream.

In a further assay the test system is p53 in MCF-7 cells. As to the kind of experiment: Western blot analysis of p53. In kind it is cell-based, human. Here is the method: Total protein was extracted from harvested cell with Radioimmunoprecipitation assay (RIPA) buffer supplemented with phosphatase inhibitor cocktail (Roche, Canada) and the concentration was quantified by Bradford assay (Sigma, USA). Then, 100 μg of extracted protein was subjected to sodium dodecyl sulfate polyacrylamide gel electrophoresis (SDS-PAGE) (Bio-Rad, USA), transferred to nitrocellulose membrane, block with 0.5% skimmed milk overnight, washed with Tris-buffered saline tween (TBST) buffer and incubated with primary antibodies (anti-CDC2, anti-pCDC2 (Tyr15), anti-p53, and anti-β-actin at a dilution of 1:1000 (Abcam, USA) for 1 h. After that, membranes were washed, incubated with 1:5000 diluted goat anti-rabbit IgG H&L conjugated to […] (Abcam, USA) and developed under chemiluminescence condition (Super Signal West Pico, Pierce, USA) using the ChemiDoc XRS (Bio-Rad, USA). Differential level of evaluated protein in control and DK1 treated MCF-7 was calculated based on the bands intensity analyzed using the Quantity One 1D Analysis software (Bio-rad, USA).
Background: A western blot detects proteins with antibodies after separation by electrophoresis.

Assay [4] deals with PLK1, p21 and WEE-1 expression in MCF-7 cells. As to the kind of experiment: qRT-PCR of cell cycle related genes. The note with it: MCF-7, curcumin 30 µM, 72 h.

This is an account of results in paper PMC5320730, “Synthetic curcumin derivative DK1 possessed G2/M arrest and induced apoptosis through accumulation of intracellular ROS in MCF-7 breast cancer cells” (Cancer Cell International, 2017).

In the case of `O=C1c2ccccc2C(=O)c2c(O)cc(Br)cc21` [BHAQ, 3-Bromo-1-hydroxy-9,10-anthraquinone], in the assay on MCF-7 cells [1], the SI value is 2.31.

With `COc1ccc(/C=C/C(=O)c2c(O)cc(OC)cc2OC)cc1` [flavokawain A], the SI value in the assay with MCF-7 cells [1] is recorded as 3.78.

With `COc1cc(/C=C/C(=O)CC(=O)/C=C/c2ccc(O)c(OC)c2)ccc1O` [Curcumin, diferuloylmethane], the IC50 in the assay on HL-60 cells (24 h) was 57 ± 3.75 µM; in the assay with HL-60 cells (48 h) it was 29.9 ± 3.11 µM; with HL-60 cells (72 h), 21.7 ± 1.76 µM; with HepG2 cells (24 h), 67.9 ± 2.88 µM; in the assay with HepG2 cells (48 h) it was 40.7 ± 2.76 µM; with HepG2 cells (72 h), 24.4 ± 2.25 µM. The IC50 with MCF-7 cells [2] (24 h) came out at 40.7 ± 3.24 µM; with MCF-7 cells [2] (48 h) it was 36.6 ± 2.31 µM; in the assay with MCF-7 cells [2] (72 h), 30.2 ± 2.36 µM; in the assay on MDA-MB-231 cells (24 h), 35.3 ± 4.16 µM; with MDA-MB-231 cells (48 h), 21.7 ± 1.87 µM; in the assay with MDA-MB-231 cells (72 h), 21.7 ± 3.18 µM. Moreover, the results for the IC50 in the assay with MCF-10A cells (24 h), in the assay on MCF-10A cells (48 h) and with MCF-10A cells (72 h) were 190 ± 3.67 µM, 114 ± 3.57 µM and 100 ± 3.17 µM, respectively. Further, the “Selective index of MCF-10A/MCF-7” value in the assay with MCF-7 cells [2] (IC50 MCF-10A / IC50 MCF-7, 24 h) came out at 4.67; in the assay with MCF-7 cells [2] (IC50 MCF-10A / IC50 MCF-7, 72 h), 3.33. Besides, the “Selective index of MCF-10A/MDA” value is reported as 5.38 with MDA-MB-231 cells (IC50 MCF-10A / IC50 MDA-MB-231, 24 h); 5.25 in the assay with MDA-MB-231 cells (IC50 MCF-10A / IC50 MDA-MB-231, 48 h); 4.63 with MDA-MB-231 cells (IC50 MCF-10A / IC50 MDA-MB-231, 72 h). For the same compound, the “late apoptosis, folds lower than DK1 treatment” value in the assay on MCF-7 cells [3] (MCF-7, 72 h, curcumin 30 µM vs DK1 25 µM) stood at 2.6 folds. Moreover, in the assay on MCF-7 cells [3] (MCF-7, curcumin 30 µM, 72 h, AnnexinV/PI), the late apoptosis is on record as 15%. In addition, in the assay on p53 in MCF-7 cells (MCF-7, curcumin 30 µM, 72 h), the “deregulation of apoptosis related genes or proteins, particularly p53, compared to DK1” value is “lower degree of deregulation”. In the assay with p53 in MCF-7 cells (curcumin treated MCF-7), the “significant upregulation of p53” value is given as “absent”. In addition, in assay [4], the “deregulation of cell cycle regulation related genes compared to DK1” value is on record as “lower degree of deregulation”.

For the compound 4-hydroxy tamoxifen, the SI with MCF-7 cells [1] (normal vs cancerous cell line) was under 2.

For orientation: IC50 means the concentration at which inhibition is half-maximal. A low value points to inhibition by little substance.
